Test results: patent US12410171B2, “Tropomyosin receptor kinase (TRK) degradation compounds and methods of use” (Cullgen (Shanghai), Inc., priority 2020, dated 2025)
Like-named read-outs stand apart in the source and are kept apart here.

Tests used:
KM12 cells = test: KM12 cell viability (CellTiter-Glo); assay type: cell-based; details: Homo sapiens
Procedure, shortened: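 Three-day exposure of KM12 cells (5000/well, RPMI 1640 with 10% FBS, 37 °C, 5% CO2) to compound dilution series, 3-fold over 8 or 11 points (top 1000 nM in the 8-point format) or 2-fold over 12. CellTiter-Glo readout, with IC50 fitted by nonlinear least-squares regression.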

TPM3-TRKA fusion protein = target: T1, TPM3-TRKA fusion protein (Homo sapiens, UniProt P04629); test: TPM3-TRKA fusion protein levels in KM12 cells (Western blot); assay type: cell-based; details: read-out: Degradation (at 10 nM)
T1 construct: The resulted chimeric proteins always retain the kinase domain of TRK proteins; TPM3 (fusion partner, N-terminal part of tropomyosin alpha-3, P06753); endogenous in cells; host or cells: KM12 colon cancer cells; the other entry of the earlier key: TPM3 (P06753, Tropomyosin alpha-3 chain)
Procedure, shortened: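 TPM3-TRKA levels were assessed by Western blot with chemiluminescent detection and band densitometry, after SDS-PAGE of BCA-normalized RIPA lysates. Before lysis, KM12 cells received DMSO, compounds or matched control compounds at concentrations including 0.1, 1, 10 and 100 nM and 0.4–30 nM. Exposures lasted 4 h, 8–16 h or 16 h.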

[1] = 72 h, KM12 cell viability, 11-point 3-fold serial dilution, 3 days, CellTiter-Glo, read-out: IC50
[2] = 16 h, TPM3-TRKA degradation in KM12 cells at 10 nM
[3] = 72 h, KM12 cell viability, CellTiter-Glo, three days treatment, read-out: IC50
[4] = 16 h, TPM3-TRKA degradation in KM12 cells at 10 nM compound, category of percentage degradation

T1 sequence (P04629 with tags, fused parts or gaps): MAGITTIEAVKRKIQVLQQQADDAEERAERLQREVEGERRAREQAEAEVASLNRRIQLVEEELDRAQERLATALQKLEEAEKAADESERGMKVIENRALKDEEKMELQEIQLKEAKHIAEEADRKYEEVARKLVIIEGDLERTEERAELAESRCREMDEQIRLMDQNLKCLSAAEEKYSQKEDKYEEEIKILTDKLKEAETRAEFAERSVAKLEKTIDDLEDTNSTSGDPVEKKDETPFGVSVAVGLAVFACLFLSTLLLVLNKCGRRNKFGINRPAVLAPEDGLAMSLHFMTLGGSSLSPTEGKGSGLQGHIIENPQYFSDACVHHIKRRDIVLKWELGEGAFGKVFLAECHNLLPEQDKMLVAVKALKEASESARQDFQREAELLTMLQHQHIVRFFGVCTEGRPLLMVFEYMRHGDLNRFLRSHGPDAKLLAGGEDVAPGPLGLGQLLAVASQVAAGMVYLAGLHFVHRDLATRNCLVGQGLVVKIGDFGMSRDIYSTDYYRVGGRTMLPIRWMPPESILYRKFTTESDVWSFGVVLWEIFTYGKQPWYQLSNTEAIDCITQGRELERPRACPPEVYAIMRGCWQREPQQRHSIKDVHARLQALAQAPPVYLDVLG

percent degradation of TPM3-TRKA protein at 0.01 µM (TPM3-TRKA fusion protein; [4])	Structure (SMILES)	IC50 (KM12 cells; [3])	other results
–	COc1ccc(COc2ccc(Cn3c(N)nc4cc(-c5cnn(CC(=O)NCCNc6cccc7c6C(=O)N(C6CCC(=O)NC6=O)C7=O)c5)cnc43)cc2OC)cc1 (stereo not shown) [CPD-498, 2-(4-(2-amino-3-(3-methoxy-4-((4-methoxybenzyl)oxy)benzyl)-3H-imidazo[4,5-b]pyridin-6-yl)-1H-pyrazol-1-yl)-N-(2-((2-(2,6-dioxopiperidin-3-yl)-1,3-dioxoisoindolin-4-yl)amino)ethyl)acetamide]	–	IC50 (KM12 cells; KM12, 72 h): 36.5 nM; percent degradation of TPM3-TRKA protein at 0.01 µM (TPM3-TRKA fusion protein; KM12, 16 h): 50 to 80%
–	COc1ccc(COc2ccc(Cn3c(N)nc4cc(-c5cnn(CC(=O)NCCCCNc6cccc7c6C(=O)N(C6CCC(=O)NC6=O)C7=O)c5)cnc43)cc2OC)cc1 (stereo not shown) [CPD-499, 2-(4-(2-amino-3-(3-methoxy-4-((4-methoxybenzyl)oxy)benzyl)-3H-imidazo[4,5-b]pyridin-6-yl)-1H-pyrazol-1-yl)-N-(4-((2-(2,6-dioxopiperidin-3-yl)-1,3-dioxoisoindolin-4-yl)amino)butyl)acetamide]	–	IC50 (KM12 cells; [1]): 11.3 nM; percent degradation of TPM3-TRKA protein at 0.01 µM (TPM3-TRKA fusion protein; [2]): > 80%
–	COc1ccc(COc2ccc(Cn3c(N)nc4cc(-c5cnn(CC(=O)NCCCCCCNc6cccc7c6C(=O)N(C6CCC(=O)NC6=O)C7=O)c5)cnc43)cc2OC)cc1 (stereo not shown) [CPD-500, 2-(4-(2-amino-3-(3-methoxy-4-((4-methoxybenzyl)oxy)benzyl)-3H-imidazo[4,5-b]pyridin-6-yl)-1H-pyrazol-1-yl)-N-(6-((2-(2,6-dioxopiperidin-3-yl)-1,3-dioxoisoindolin-4-yl)amino)hexyl)acetamide]	–	IC50 (KM12 cells; [1]): 13.2 nM; percent degradation of TPM3-TRKA protein at 0.01 µM (TPM3-TRKA fusion protein; [2]): > 80%
–	COc1ccc(COc2ccc(Cn3c(N)nc4cc(-c5cnn(CC(=O)NCCCCCCCCNc6cccc7c6C(=O)N(C6CCC(=O)NC6=O)C7=O)c5)cnc43)cc2OC)cc1 (stereo not shown) [CPD-501, 2-(4-(2-amino-3-(3-methoxy-4-((4-methoxybenzyl)oxy)benzyl)-3H-imidazo[4,5-b]pyridin-6-yl)-1H-pyrazol-1-yl)-N-(8-((2-(2,6-dioxopiperidin-3-yl)-1,3-dioxoisoindolin-4-yl)amino)octyl)acetamide]	–	IC50 (KM12 cells; [1]): 13.2 nM; percent degradation of TPM3-TRKA protein at 0.01 µM (TPM3-TRKA fusion protein; [2]): > 80%
–	COc1ccc(COc2ccc(Cn3c(N)nc4cc(-c5cnn(CC(=O)NCCCCCCCC(=O)N[C@H](C(=O)N6C[C@H](O)C[C@H]6C(=O)NCc6ccc(-c7scnc7C)cc6)C(C)(C)C)c5)cnc43)cc2OC)cc1 [CPD-510, (2S,4R)-1-((S)-2-(8-(2-(4-(2-amino-3-(3-methoxy-4-((4-methoxybenzyl)oxy)benzyl)-3H-imidazo[4,5-b]pyridin-6-yl)-1H-pyrazol-1-yl)acetamido)octanamido)-3,3-dimethylbutanoyl)-4-hydroxy-N-(4-(4-methylthiazol-5-yl)benzyl)pyrrolidine-2-carboxamide]	–	IC50 (KM12 cells; [1]): 58.8 nM; percent degradation of TPM3-TRKA protein at 0.01 µM (TPM3-TRKA fusion protein; [2]): < 50%
–	COc1ccc(COc2ccc(Cn3c(N)nc4cc(-c5cnn(CC(=O)NCCCCCCCCCC(=O)N[C@H](C(=O)N6C[C@H](O)C[C@H]6C(=O)NCc6ccc(-c7scnc7C)cc6)C(C)(C)C)c5)cnc43)cc2OC)cc1 [CPD-511, (2S,4R)-1-((S)-2-(10-(2-(4-(2-amino-3-(3-methoxy-4-((4-methoxybenzyl)oxy)benzyl)-3H-imidazo[4,5-b]505yridine-6-yl)-1H-pyrazol-1-yl)acetamido)decanamido)-3,3-dimethylbutanoyl)-4-hydroxy-N-(4-(4-methylthiazol-5-yl)benzyl)pyrrolidine-2-carboxamide]	–	IC50 (KM12 cells; [1]): 85.8 nM; percent degradation of TPM3-TRKA protein at 0.01 µM (TPM3-TRKA fusion protein; [2]): < 50%
50 to 80%	O=C(CN1CCN(c2cccc(-c3cnc4ccc(N5CCC[C@@H]5c5cccc(F)c5)nn34)n2)CC1)NCCOCCNc1cccc2c1C(=O)N(C1CCC(=O)NC1=O)C2=O (stereo partly drawn) [TR-106, N-(2-(2-((2-(2,6-dioxopiperidin-3-yl)-1,3-dioxoisoindolin-4-yl)amino)ethoxy)ethyl)-2-(4-(6-(6-((R)-2-(3-fluorophenyl)pyrrolidin-1-yl)imidazo[1,2-b]pyridazin-3-yl)pyridin-2-yl)piperazin-1-yl)acetamide]	3.8 nM	–
> 80%	O=C1CCC(N2C(=O)c3ccc(NCCCCC(=O)N4CCN(c5cccc(-c6cnc7ccc(N8CCC[C@@H]8c8cccc(F)c8)nn67)n5)CC4)cc3C2=O)C(=O)N1 (stereo partly drawn) [TR-115, 2-(2,6-Dioxopiperidin-3-yl)-5-((5-(4-(6-(6-((R)-2-(3-fluorophenyl)pyrrolidin-1-yl)imidazo[1,2-b]pyridazin-3-yl)pyridin-2-yl)piperazin-1-yl)-5-oxopentyl)amino) isoindoline-1,3-dione]	0.9 nM	–
> 80%	O=C(CN1CCN(c2cccc(-c3cnc4ccc(N5CCC[C@@H]5c5cccc(F)c5)nn34)n2)CC1)NCCNc1ccc2c(c1)C(=O)N(C1CCC(=O)NC1=O)C2=O (stereo partly drawn) [TR-130, N-(2-((2-(2,6-dioxopiperidin-3-yl)-1,3-dioxoisoindolin-5-yl]amino)ethyl)-2-(4˜ (6˜ (6-((R)-2-(3-fluorophenyl)pyrrolidin-1-yl)imidazo[1,2-b]pyridazin-3-yl)pyridin-2-yl)piperazin-1-yl)acetamide]	0.9 nM	–
> 80%	O=C(CN1CCN(c2cccc(-c3cnc4ccc(N5CCC[C@@H]5c5cccc(F)c5)nn34)n2)CC1)NCCOCCNc1ccc2c(c1)C(=O)N(C1CCC(=O)NC1=O)C2=O (stereo partly drawn) [TR-135, N-(2-(2-((2-(2,6-dioxopiperidin-3-yl)-1,3-dioxoisoindolin-5-yl)amino)ethoxy)ethyl)-2-(4-(6-(6-((R)-2-(3-fluorophenyl)pyrrolidin-1-yl)imidazo[1,2-b]pyridazin-3-yl)pyridin-2-yl)piperazin-1-yl)acetamide]	0.9 nM	–
> 80%	O=C1CCC(N2C(=O)c3ccc(NCCOCCOCCOCCOCCC(=O)N4CCN(c5ccc(C(=O)Nc6n[nH]c7ccc(Cc8cc(F)cc(F)c8)cc67)c(NC6CCOCC6)c5)CC4)cc3C2=O)C(=O)N1 (stereo not shown) [TR-140, N-(5-(3,5-Difluorobenzyl)-1H-indazol-3-yl)-4-(4-(1-((2-(2,6-dioxopiperidin-3-yl)-1,3-dioxoisoindolin-5-yl)amino)-3,6,9,12-tetraoxapentadecan-15-oyl)piperazin-1-yl)-2˜ ((tetrahydro-2H-pyran-4-yl)amino)benzamide]	1.6 nM	–
> 80%	O=C1CCC(N2Cc3cc(NCC(=O)N4CCN(c5cccc(-c6cnc7ccc(N8CCC[C@@H]8c8cccc(F)c8)nn67)n5)CC4)ccc3C2=O)C(=O)N1 (stereo partly drawn) [TR-190, 3-(5-((2-(4-(6-(6-((R)-2-(3-fluorophenyl)pyrrolidin-1-yl)imidazo[1,2-b]pyridazin-3-yl)pyridin-2-yl)piperazin-1-yl)-2-oxoethyl)amino)-1-oxoisoindolin-2-yl)piperidine-2,6-dione]	8.7 nM	–
50 to 80%	O=C1CCC(N2C(=O)c3ccc(CCC(=O)N4CCN(c5cccc(-c6cnc7ccc(N8CCC[C@@H]8c8cccc(F)c8)nn67)n5)CC4)cc3C2=O)C(=O)N1 (stereo partly drawn) [TR-194, 2-(2,6-Dioxopiperidin-3-yl)-5-(3-(4-(6-(6-((R)-2-(3-fluorophenyl)pyrrolidin-1-yl)imidazo[1,2-b]pyridazin-3-yl)pyridin-2-yl)piperazin-1-yl)-3-oxopropyl)isoindoline-1,3-dione]	7.4 nM	–
> 80%	O=C1CCC(N2C(=O)c3ccc(N4CC(C(=O)N5CCN(c6cccc(-c7cnc8ccc(N9CCC[C@@H]9c9cccc(F)c9)nn78)n6)CC5)C4)cc3C2=O)C(=O)N1 (stereo partly drawn) [TR-211, 2-(2,6-dioxopiperidin-3-yl)-5-(3-(4-(6-(6-((R)-2-(3-fluorophenyl)pyrrolidin-1-yl)imidazo[1,2-b]pyridazin-3-yl)pyridin-2-yl)piperazine-1-carbonyl)azetidin-1-yl)isoindoline-1,3-dione]	2 nM	–
> 80%	Cn1c(=O)n(C2CCC(=O)NC2=O)c2ccc(NCCCN3CCN(c4cccc(-c5cnc6ccc(N7CCC[C@@H]7c7cccc(F)c7)nn56)n4)CC3)cc21 (stereo partly drawn) [TR-221, 3-[5-[3-[4-[6-[6-[(2R)-2-(3-fluorophenyl)pyrrolidin-1-yl]imidazo[1,2-b]pyridazin-3-yl]-2-pyridyl]piperazin-1-yl]propylamino]-3-methyl-2-oxo-benzimidazol-1-yl]piperidine-2,6-dione]	7.8 nM	–
> 80%	O=C1CCC(N2C(=O)c3ccc(N4CCC(CN5CCN(c6cccc(-c7cnc8ccc(N9CCC[C@@H]9c9cccc(F)c9)nn78)n6)CC5)C4)cc3C2=O)C(=O)N1 (stereo partly drawn) [TR-225, 2-(2,6-dioxopiperidin-3-yl)-5-(3-((4-(6-(6-((R)-2˜ (3-fluorophenyl)pyrrolidin-1-yl)imidazo[1,2-b]pyridazin-3-yl)pyridin-2-yl)piperazin-1-yl)methyl)pyrrolidin-1-yl)isoindoline-1,3-dione]	8.4 nM	–
50 to 80%	O=C1CCC(n2c(=O)n(CCN3CCN(c4cccc(-c5cnc6ccc(N7CCC[C@@H]7c7cccc(F)c7)nn56)n4)CC3)c3ccccc32)C(=O)N1 (stereo partly drawn) [TR-227, 3-(3-(2-(4-(6-(6-((R)-2-(3-Fluorophenyl)pyrrolidin-1-yl)imidazo[1,2-b]pyridazin-3-yl)pyridin-2-yl)piperazin-1-yl)ethyl)-2-oxo-2,3-dihydro-1H-benzo[d]imidazol-1-yl)piperidine-2,6-dione]	23.6 nM	–
